Common to all, as to format: cell-based
Test [1] deals with T1, Peroxisome proliferator-activated receptor gamma (Homo sapiens, UniProt P37231).
T1 sequence (P37231 whole entry): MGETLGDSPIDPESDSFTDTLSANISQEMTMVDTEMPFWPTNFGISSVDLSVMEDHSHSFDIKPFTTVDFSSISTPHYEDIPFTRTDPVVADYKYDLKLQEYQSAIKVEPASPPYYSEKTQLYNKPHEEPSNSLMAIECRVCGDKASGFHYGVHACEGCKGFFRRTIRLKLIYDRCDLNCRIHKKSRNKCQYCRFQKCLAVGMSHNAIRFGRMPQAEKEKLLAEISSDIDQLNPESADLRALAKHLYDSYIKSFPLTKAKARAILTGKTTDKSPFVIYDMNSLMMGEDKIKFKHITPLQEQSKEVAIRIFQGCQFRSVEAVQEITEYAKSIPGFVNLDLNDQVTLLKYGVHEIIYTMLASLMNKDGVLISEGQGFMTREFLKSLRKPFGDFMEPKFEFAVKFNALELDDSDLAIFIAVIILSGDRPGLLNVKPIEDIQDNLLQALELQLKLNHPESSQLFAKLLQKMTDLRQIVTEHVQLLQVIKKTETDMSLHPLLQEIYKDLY
As to the kind of experiment: (§1) Agonist activity at human PPARgamma ligand binding domain expressed in human HepG2 cells co-transfected with Gal4 by luciferase reporter gene assay.

Test [2] addresses T2, Peroxisome proliferator-activated receptor alpha (Homo sapiens, UniProt Q07869).
T2 sequence (Q07869 whole entry): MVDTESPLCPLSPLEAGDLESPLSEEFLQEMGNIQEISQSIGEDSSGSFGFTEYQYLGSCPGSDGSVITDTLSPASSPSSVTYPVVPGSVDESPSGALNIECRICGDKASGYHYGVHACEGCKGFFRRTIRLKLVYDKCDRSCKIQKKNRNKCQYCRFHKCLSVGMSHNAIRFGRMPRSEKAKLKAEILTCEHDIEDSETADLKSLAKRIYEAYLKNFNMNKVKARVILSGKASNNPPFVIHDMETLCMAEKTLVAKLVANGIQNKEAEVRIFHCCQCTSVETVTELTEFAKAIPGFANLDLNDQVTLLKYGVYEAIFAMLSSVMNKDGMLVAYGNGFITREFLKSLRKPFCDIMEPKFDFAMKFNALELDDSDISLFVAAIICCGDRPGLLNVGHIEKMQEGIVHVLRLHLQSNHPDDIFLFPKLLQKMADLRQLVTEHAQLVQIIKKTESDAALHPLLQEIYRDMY
In words: (§2) Agonist activity at human PPARalpha ligand binding domain expressed in human HepG2 cells co-transfected with Gal4 by luciferase reporter gene assay. (A reporter such as luciferase makes a cellular process visible.)

The target in test [3] is T3, Peroxisome proliferator-activated receptor alpha (Homo sapiens) (UniProt Q07869).
T3 sequence (whole entry): T2 sequence (Q07869 whole entry)
As to the kind of experiment: Agonist activity at human PPARalpha ligand binding domain expressed in human HepG2 cells co-transfected with Gal4 by luciferase reporter gene assay relative to Wy-14,643.

The target of test [4] is T3, Peroxisome proliferator-activated receptor alpha (Homo sapiens). Described as §2.
In test [5] the target is T4, Peroxisome proliferator-activated receptor gamma (Homo sapiens) (UniProt P37231).
T4 sequence (whole entry): T1 sequence (P37231 whole entry)
The description is as §1.

Drawing on ChEMBL document CHEMBL1152254, “Synthesis, biological evaluation, and molecular modeling investigation of chiral 2-(4-chloro-phenoxy)-3-phenyl-propanoic acid derivatives with PPARalpha and PPARgamma agonist activity” (Bioorg Med Chem, 2008), this text covers EC50, Efficacy and Activity for 34 molecules.

Structures are written as SMILES. Active and inactive are the calls of the source. The calls are words filed in the database; no cut-off is given here.

One may read the EC50 as the concentration needed to bring the measured effect to its halfway point. Low values mean greater potency, high ones weaker potency.

As for `Cc1ccc(CC(Oc2ccc(Cl)cc2)C(=O)O)cc1` (racemic), the EC50 came out at 4.36 µM in test [1] and 2.81 µM in test [2]. In addition, the Efficacy in test [3] stood at 53%.

On to `Cc1cccc(Nc2cc(Cl)nc(SCC(=O)O)n2)c1C`, for which the result in test [4] and in test [3] was inactive.

As for `O=C(O)C(Cc1ccccc1)Oc1ccc(Cl)c(Cl)c1` (racemic), the EC50 in test [1] amounted to 2.55 µM; in test [2], 4.49 µM. Further, in test [3], the Efficacy worked out at 27%.

Regarding `O=C(O)[C@@H](Cc1ccc(Oc2ccccc2)cc1)Oc1ccc(Cl)cc1`, the results for the EC50 in test [1] and in test [2] were 11.3 µM and 0.7 µM, respectively. Besides, in test [3], the Efficacy turned out to be 15%.

On to `O=C(O)C(Cc1ccccc1Br)Oc1ccc(Cl)cc1` (racemic), for which the results for the EC50 in test [1] and in test [2] were 2.48 µM and 2.25 µM, respectively. The molecule also registered an Efficacy in test [3] of 57%.

With `CCCc1ccccc1CC(Oc1ccc(Cl)cc1)C(=O)O` (stereo not drawn), the results for the EC50 in test [1] and in test [2] were 3.68 µM and 1.43 µM, respectively. The same molecule showed an Efficacy in test [3] of 43%.

For the molecule `CN(CCOc1ccc(CC2SC(=O)NC2=O)cc1)c1ccccn1` (stereo not drawn), the outcome in test [5] was inactive. Further, in test [3], the Efficacy was determined as 100%.

As to `O=C(O)C(Cc1cccc(Oc2ccccc2)c1)Oc1ccc(Cl)cc1` (racemic), the EC50 came out at 3.06 µM in test [1] and 0.24 µM in test [2]. The molecule further returned an Efficacy in test [3] of 57%.

Regarding `O=C(O)C(Cc1ccc(Cl)cc1)Oc1ccc(Cl)cc1` (racemic), the figures for the EC50 in test [1] and in test [2] were 3.16 µM and 2.23 µM, respectively. Besides, in test [3], the Efficacy was 49%.

As to `O=C(O)C(Cc1ccccc1Cl)Oc1ccc(Cl)cc1` (racemic), the EC50 is 2.23 µM in test [1] and 2.18 µM in test [2]. Further, the Efficacy in test [3] was determined as 44%.

With `O=C(O)C(Cc1ccccc1)Oc1ccc(Cl)cc1Cl` (racemic), the EC50 in test [2] was 2.12 µM. In test [3], the Efficacy amounted to 50%.

Consider `O=C(O)[C@H](Cc1ccc(C(F)(F)F)cc1)Oc1ccc(Cl)cc1`, for which the results for the EC50 in test [1] and in test [2] were 3.65 µM and 0.42 µM, respectively. The molecule further returned an Efficacy in test [3] of 69%.

For the molecule `O=C(O)C(Cc1ccccc1)Oc1c(Cl)cc(Cl)cc1Cl` (racemic), the result in test [5], in test [4] and in test [3] was inactive.

Take `O=C(O)C(Cc1ccccc1C(F)(F)F)Oc1ccc(Cl)cc1` (racemic): the EC50 was 4.03 µM in test [1] and 2.49 µM in test [2]. This molecule yielded an Efficacy in test [3] of 43%.

For `O=C(O)C(Cc1ccccc1-c1ccccc1)Oc1ccc(Cl)cc1` (stereo not drawn), the outcome in test [5], in test [4] and in test [3] was inactive.

Turning to `CCCCCCc1ccccc1CC(Oc1ccc(Cl)cc1)C(=O)O` (stereo not drawn), the result in test [5], in test [4] and in test [3] was inactive.

Molecule `O=C(O)C(Cc1ccccc1)Oc1ccc(Cl)cc1Br` (racemic) registered an EC50 in test [2] of 1.65 µM. Further, the Efficacy in test [3] turned out to be 41%.

On to `Cc1cccc(C)c1CC(Oc1ccc(Cl)cc1)C(=O)O` (racemic), for which the result in test [5], in test [4] and in test [3] was inactive.

Turning to `O=C(O)[C@H](Cc1ccc(-c2cccs2)cc1)Oc1ccc(Cl)cc1`, the EC50 came out at 0.59 µM in test [1] and 0.065 µM in test [2]. The same molecule showed an Efficacy in test [3] of 71%.

As for `O=C(O)C(Cc1ccc(Br)cc1)Oc1ccc(Cl)cc1` (racemic), the results for the EC50 in test [1] and in test [2] were 2.07 µM and 1.1 µM, respectively. In test [3], the Efficacy was 46%.

`O=C(O)[C@H](Cc1ccc(Oc2ccccc2)cc1)Oc1ccc(Cl)cc1`: the figures for the EC50 in test [1] and in test [2] were 0.87 µM and 0.027 µM, respectively. The molecule also yielded an Efficacy in test [3] of 68%.

As to `O=C(O)[C@H](Cc1ccc(-c2ccccc2)cc1)Oc1ccc(Cl)cc1`, the results for the EC50 in test [1] and in test [2] were 1.12 µM and 0.049 µM, respectively. In addition, the Efficacy in test [3] came to 70%.

With `O=C(O)C(Cc1ccccc1)Oc1ccc(Cl)cc1-c1ccccc1` (racemic), the result in test [5], in test [4] and in test [3] was inactive.

Take `O=C(O)C(Cc1c(Cl)cccc1Cl)Oc1ccc(Cl)cc1` (racemic): the result in test [5], in test [4] and in test [3] was inactive.

In the case of `CCCc1cc(Cl)ccc1OC(Cc1ccccc1)C(=O)O` (stereo not drawn), in test [3], the Efficacy amounted to 18%.

With `O=C(O)C(Cc1ccccc1Oc1ccccc1)Oc1ccc(Cl)cc1` (racemic), the result in test [5] was inactive. Besides, it took 1.14 µM to reach a half-maximal effect in test [2] (EC50). The Efficacy in test [3] is 40%.

For the molecule `Cc1cc(Cl)ccc1OC(Cc1ccccc1)C(=O)O` (racemic), the Efficacy in test [3] worked out at 34%.

In the case of `O=C(O)C(Cc1ccc(Oc2ccccc2)cc1)Oc1ccc(Cl)cc1` (racemic), the EC50 amounted to 1.06 µM in test [1] and 0.064 µM in test [2]. In test [3], this molecule displayed an Efficacy of 58%.

On to `O=C(O)[C@H](Cc1ccccc1)Oc1ccc(Cl)cc1`, for which the results for the EC50 in test [1] and in test [2] were 7.94 µM and 14.5 µM, respectively. In test [3], this molecule showed an Efficacy of 48%.

On to `Cc1ccccc1CC(Oc1ccc(Cl)cc1)C(=O)O` (racemic), for which the EC50 came to 8.54 µM in test [1] and 9.25 µM in test [2]. The Efficacy in test [3] came out at 50%.

Consider `CCCc1ccc(CC(Oc2ccc(Cl)cc2)C(=O)O)cc1` (stereo not drawn), for which the figures for the concentration giving a half-maximal response (EC50) in test [1] and in test [2] were 1.39 µM and 0.35 µM, respectively. The molecule also had an Efficacy in test [3] of 39%.

On to `Cc1cc(Cl)cc(C)c1OC(Cc1ccccc1)C(=O)O` (racemic), for which the result in test [5], in test [4] and in test [3] was inactive.

On to `CCCCCCc1ccc(CC(Oc2ccc(Cl)cc2)C(=O)O)cc1` (stereo not drawn), for which the response in test [2] was half-maximal at 0.45 µM (EC50). Further, the Efficacy in test [3] turned out to be 56%.

`CCCCCCc1cc(Cl)ccc1OC(Cc1ccccc1)C(=O)O` (racemic): the result in test [5], in test [4] and in test [3] was inactive.
